Results from patent publication US20190055280A1, “TRANSITION METAL-BASED SELECTIVE FUNCTIONALIZATION OF CHALCOGENS IN BIOMOLECULES” (Massachusetts Institute of Technoloy, priority 2014, published 2019).
Read-outs that look alike come from different tables or passages of the source. Peptide text beside a SMILES is read from it. * marks the point of attachment. Succinimide(1-Et,3-yl) = CCN1C(=O)CC(*)C1=O; Bn = c1ccc(C*)cc1; X1 = Cc1ccc(*)cc1; Cam = NC(=O)C*

Assay: Stability evaluation of peptide P1 cysteine conjugates in the presence of base, acid or an external thiol nucleophile (LC-MS)
Assay type: physicochemical
Details: for stability toward acids (in words): acidic conditions; for stability toward bases (in words): basic conditions; for stability toward external thiol nucleophiles (in words): exogenous thiol
Method: All reported yields were determined by integrating TIC spectra. First, the peak areas for all relevant peptide-containing species on the chromatogram were integrated using Agilent MassHunter software package. Since no peptide-based side products were generated in the experiments, the yields shown in Table 2 were determined as follows: % yield=Spr/Stotal where Spr is the peak area of the product and Stotal is the peak area of combined peptide-containing species (product and starting material). The yield of the stapled peptide (Example 19) was calculated as follows: % yield=k·Spr/Sst where Spr is the peak area of the reaction product, Sst is the peak area of a known amount of purified product, and k equals to the ratio of the known amount of standard divided by the initial amount of starting material. For peptide stability experiments the conversion was calculated as following: % remaining peptide=St/S0 where St is the peak area of the corresponding cysteine conjugate at time t, and S0 is the peak area of the cysteine conjugate at time 0.
Peptide P1 conjugates were pre-dissolved in water in plastic Eppendorfs to afford the 1.11 mM stock solutions used in the stability evaluation experiments. For each experiment, the corresponding cysteine conjugate (1.11 mM; 18 μL) and stability test reagent (2 μL, 50 mM in H2O or 50 mM in 1M Tris, pH 7.4) were combined in a plastic Eppendorf and left at rt for 2 days, followed by 4 days at 37° C. After this time, individual reactions were quenched with a solution of 50% A:50% B (v/v, 200 μL) and the resulting samples were analyzed by LC-MS.
Stability test reagent: K2CO3 (2 μL, 50 mM in H2O); Final conditions before quenching: 1 mM peptide, 5 mM K2CO3; 2 d at rt, then 4 d at 37° C.
Stability test reagent: HCl (2 μL, 1 M in H2O); Final conditions before quenching: 1 mM peptide, 0.1 M HCl; 2 d at rt, then 4 d at 37° C.
Stability test reagent: Glutathione (2 μL, 50 mM in 1 M Tris; pH 7.4); Final conditions before quenching: 1 mM peptide, 5 mM GSH, 0.1M Tris, pH 7.4; 2 d at rt, then 4 d at 37° C.

[1] = 0.1 M Tris buffer with 5 mM glutathione, 1 mM peptide, 5 mM GSH, 0.1M Tris, pH 7.4, 2 d at rt, then 4 d at 37° C., read-out: % remaining peptide, GSH
[2] = 0.1 M aqueous HCl, 1 mM peptide, 0.1 M HCl, 2 d at rt, then 4 d at 37° C., read-out: % remaining peptide, acid
[3] = 5 mM aqueous K2CO3, 1 mM peptide, 5 mM K2CO3, 2 d at rt, then 4 d at 37° C., read-out: % remaining peptide, base

% remaining peptide, base (1 mM peptide, 5 mM K2CO3, 2 d at rt, then 4 d at 37° C.)	remaining at 144 h, 1 mM [1]	remaining at 144 h, 1 mM [2]	stability toward acids (in words)	stability toward bases (in words)	stability toward external thiol nucleophiles (in words)	remaining at 144 h, 1 mM [3]	Structure (SMILES)
83%	90%	83%	stable	stable	stable		Cc1ccc(SC[C@H](NC(=O)CNC(=O)[C@H](CC(C)C)NC(=O)[C@H](Cc2ccc(O)cc2)NC(=O)[C@H](Cc2ccccc2)NC(=O)[C@H](CC(N)=O)NC(=O)[C@H](CO)NC(=O)[C@@H](N)CCCNC(=N)N)C(=O)N[C@@H](C)C(=O)NCC(=O)N[C@@H](CC(C)C)C(=O)N[C@@H](C)C(=O)N[C@@H](Cc2c[nH]cn2)C(=O)N[C@@H](CC(=O)O)C(=O)N[C@@H](CCCCN)C(=O)N[C@@H](C)C(=O)N[C@H](C(N)=O)[C@@H](C)O)cc1 (H-RSNFYLGC(X1)AGLAHDKAT-NH2)
	37%	84%		decomposed	decomposed	0%	CCN1C(=O)CC(SC[C@H](NC(=O)CNC(=O)[C@H](CC(C)C)NC(=O)[C@H](Cc2ccc(O)cc2)NC(=O)[C@H](Cc2ccccc2)NC(=O)[C@H](CC(N)=O)NC(=O)[C@H](CO)NC(=O)[C@@H](N)CCCNC(=N)N)C(=O)N[C@@H](C)C(=O)NCC(=O)N[C@@H](CC(C)C)C(=O)N[C@@H](C)C(=O)N[C@@H](Cc2c[nH]cn2)C(=O)N[C@@H](CC(=O)O)C(=O)N[C@@H](CCCCN)C(=O)N[C@@H](C)C(=O)N[C@H](C(N)=O)[C@@H](C)O)C1=O (stereo partly shown) (H-RSNFYLGC(Succinimide(1-Et,3-yl))AGLAHDKAT-NH2)
	88%	85%				84%	CC(C)C[C@H](NC(=O)CNC(=O)[C@H](C)NC(=O)[C@H](CSCc1ccccc1)NC(=O)CNC(=O)[C@H](CC(C)C)NC(=O)[C@H](Cc1ccc(O)cc1)NC(=O)[C@H](Cc1ccccc1)NC(=O)[C@H](CC(N)=O)NC(=O)[C@H](CO)NC(=O)[C@@H](N)CCCNC(=N)N)C(=O)N[C@@H](C)C(=O)N[C@@H](Cc1c[nH]cn1)C(=O)N[C@@H](CC(=O)O)C(=O)N[C@@H](CCCCN)C(=O)N[C@@H](C)C(=O)N[C@H](C(N)=O)[C@@H](C)O (H-RSNFYLGC(Bn)AGLAHDKAT-NH2)
	85%	63%	unstable	unstable		66%	CC(C)C[C@H](NC(=O)CNC(=O)[C@H](C)NC(=O)[C@H](CSCC(N)=O)NC(=O)CNC(=O)[C@H](CC(C)C)NC(=O)[C@H](Cc1ccc(O)cc1)NC(=O)[C@H](Cc1ccccc1)NC(=O)[C@H](CC(N)=O)NC(=O)[C@H](CO)NC(=O)[C@@H](N)CCCNC(=N)N)C(=O)N[C@@H](C)C(=O)N[C@@H](Cc1c[nH]cn1)C(=O)N[C@@H](CC(=O)O)C(=O)N[C@@H](CCCCN)C(=O)N[C@@H](C)C(=O)N[C@H](C(N)=O)[C@@H](C)O (H-RSNFYLGC(Cam)AGLAHDKAT-NH2)
